Reference: the NIST ThermoML archive (doi:10.1016/j.fluid.2013.11.034)
± gives the expanded uncertainty stated by the source.

Columns and labels:
[1] = refractive index (Na D-line) (dimensionless); conditions: 298.15 K; 101.33 kPa; Liquid; Standard Abbe refractometry
[2] = 101.33 kPa, Liquid, Vibrating tube method

refractive index [1]: 1.40926 ± 0.0006 | mass density ([2]; 293.15 K): 1371.4 ± 1.2 kg/m3 | mass density ([2]; 298.15 K): 1367.23 ± 1.1 kg/m3
Compound: CCCCn1cc[n+](C)c1.F[P-](F)(F)(F)(F)F [1-butyl-3-methylimidazolium hexafluorophosphate]
